Data taken from patent US20230099229A1, “METHODS OF TREATING MULTIPLE SCLEROSIS” (REPRISE PHARMACEUTICALS, INC., priority 2020, published 2023).
Where a name gives a salt, the structure may show the parent alone.

Test system: Experimental allergic encephalitis (EAE) in female C57BL/6 mice
Test: EAE model in C57BL/6 mice, daily neurological clinical score (Example 2)
Format: in vivo, mouse
Conditions: C57BL/6 mice treated from clinical score 2 for 28 days; DMF 15 mg/kg BID, GCZ 5 mg/kg BID, alone or combined; compared to vehicle control and single agents
Description: Experimental allergic encephalitis (EAE) is induced in female C57BL/6 mice (10 weeks old) by subcutaneous injection in the flank regions (left and right sides) with 200 μl total of an emulsion of MOG35-55 peptide (200 μg in 100 μl phosphate buffered saline plus 100 μl of complete Freund's adjuvant containing […] of heat-inactivated Mycobacterium tuberculosis). Each mouse then receives 200 ng of pertussis toxin intraperitoneally (IP) on the day of immunization (day 0) and then again 48 h later (day 2). Neurological assessments are reported using a five-point standardized rating scale to evaluate motor deficit: 0, no deficit; 1, tail paralysis; 2, unilateral hind limb weakness; 3, incomplete bilateral hind limb paralysis and/or partial forelimb weakness; 4, complete hind limb paralysis and partial forelimb weakness; 5, moribund state or death.
The DMF is prepared as a suspension (15 mg/ml) in 0.8% hydroxypropyl methylcellulose (HPMC) weekly and kept at 4° C. under constant stirring. DMF is diluted into 200 μl HPMC, corresponding to a dose of 15 mg/kg body weight, and is administered twice daily (30 mg/kg/day) by oral gavage through a bulb-tipped curved gastric gavage needle by trained operators.
Experimental allergic encephalitis (EAE) was induced in female C57BL/6 mice as described in Example 1. […]

SMILES	EAE clinical scores (five-point motor deficit scale 0-5), fitted regression curves
COC(=O)/C=C/C(=O)OC [DMF, dimethyl fumarate]	no observed difference
Cc1ccc(S(=O)(=O)NC(=O)NN2CC3CCCC3C2)cc1 (centres unmarked) [GCZ, gliclazide]	no observed difference
